Here are results for 33 compounds from patent US7183306B2, “Pyrazole derivatives” (Astellas Pharma Inc., priority 2002, dated 2007).

One may read the melting point as the temperature, or range, at which the solid turns liquid. In general, IC50 refers to the concentration that inhibits the measured activity by half. A lower IC50 goes with greater potency.

Data set [1] has as its target T1, COX-I (Homo sapiens, UniProt P23219).
T1 construct: Fresh blood was collected by syringe without anticoagulants from volunteers with consent; from tissue; host or cells: fresh human whole blood from volunteers, allowed to clot
Nature of the data set: Whole blood assay for COX-I (TXB2 production). The format is cell-based. On the procedure:
[B] Inhibiting Activity Against COX-I and COX-II (Whole Blood Assay) (i) Test Metho: Whole Blood Assay for COX-I
Fresh blood was collected by syringe without anticoagulants from volunteers with consent. The subjects had no apparent inflammatory conditions and had not taken any medication for at least 7 days prior to blood collection.
500 μl Aliquots of human whole blood were immediately incubated with 2 μl of either dimethyl sulfoxide vehicle or a test compound at final concentrations for 1 hr at 37° C. to allow the blood to clot. Appropriate treatments (no incubation) were used as blanks. At the end of the incubation, 5 μl of 250 mM Indomethacin was added to stop the reaction. The blood was centrifuged at 6000×g for 5 min at 4° C. to obtain serum. A 100 μl aliquot of serum was mixed with 400 μl methanol for protein precipitation. The supernatant was obtained by centrifuging at 6000×g for 5 min at 4° C. and was assayed for TXB2 using an enzyme immunoassay kit according to the manufacturer's procedure. For a test compound, the results were expressed as percent inhibition of thromboxane B2(TXB2) production relative to control incubations containing dimethyl sulfoxide vehicle.
The data were analyzed by that a test compound at the indicated concentrations was changed log value and was applied simple linear regression. IC50 value was calculated by least squares method.

The test system of data set [2] is arthritic rats (adjuvant arthritis). As to the kind of experiment: Analgesic activity: effect on adjuvant arthritis in rats (Randall-Selitto pain threshold). It counts as in vivo, Lewis rats. Particulars: Rattus norvegicus, single dose, pain threshold of left hind paw 2 hrs after administration, threshold pressure of treated vs non-treated rats, ratio of 1.5 considered effective, read-out: The coefficient of analgesic.

The target in data set [3] is T2, COX-II (Homo sapiens, UniProt P35354).
T2 construct: incubation of the blood with 10 μl of 5 mg/ml lipopolysaccharide for 24 hrs at 37° C. for induction of COX-II; from tissue; host or cells: heparinized fresh human whole blood from volunteers, LPS-stimulated
T2 sequence (P35354 18-604): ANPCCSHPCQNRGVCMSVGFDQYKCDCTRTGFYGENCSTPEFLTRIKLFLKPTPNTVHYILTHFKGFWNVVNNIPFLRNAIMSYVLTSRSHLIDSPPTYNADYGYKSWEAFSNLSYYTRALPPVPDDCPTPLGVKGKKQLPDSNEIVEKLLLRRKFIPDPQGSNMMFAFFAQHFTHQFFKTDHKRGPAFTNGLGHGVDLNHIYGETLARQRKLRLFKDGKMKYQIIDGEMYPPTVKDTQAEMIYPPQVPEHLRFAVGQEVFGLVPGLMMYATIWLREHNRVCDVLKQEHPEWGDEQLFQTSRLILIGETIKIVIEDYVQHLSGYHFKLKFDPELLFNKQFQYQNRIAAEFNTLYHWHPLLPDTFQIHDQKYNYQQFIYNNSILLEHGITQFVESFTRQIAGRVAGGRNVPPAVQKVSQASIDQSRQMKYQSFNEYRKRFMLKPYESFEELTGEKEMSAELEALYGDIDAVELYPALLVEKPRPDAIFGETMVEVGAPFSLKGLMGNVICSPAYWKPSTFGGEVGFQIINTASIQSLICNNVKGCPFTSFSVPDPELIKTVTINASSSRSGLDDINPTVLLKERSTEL
As to the kind of experiment: Whole blood assay for COX-II (LPS-induced PGE2 production). The format is cell-based. The following applies: LPS 24 hrs at 37° C., inhibition of PGE2 production. As to the method: Whole Blood Assay for COX-II
Fresh blood was collected in heparinized tubes by syringe from volunteers with consent. The subjects had no apparent inflammatory conditions and had not taken any medication for at least 7 days prior to blood collection.
500 μl aliquots of human whole blood were incubated with either 2 μl dimethyl sulfoxide vehicle or 2 μl of a test compound at final concentrations for 15 min at 37° C. This was followed by incubation of the blood with 10 μl of 5 mg/ml lipopolysaccharide for 24 hrs at 37° C. for induction of COX-II. Appropriate PBS treatments (no LPS) were used as blanks. At the end of the incubation, the blood was centrifuged at 6000×g for 5 min at 4° C. to obtain plasma. A 100 μl aliquot of plasma was mixed with 400 μl methanol for protein precipitation. The supernatant was obtained by centrifuging at 6000×g for 5 min at 4° C. and was assayed for prostaglandin E2 (PGE2) using a radioimmunoassay kit after conversion of PGE2 to its methyl oximate derivative according to the manufacturer's procedure.
For a test compound, the results were expressed as percent inhibition of PGE2 production relative to control incubations containing dimethyl sulfoxide vehicle. The data were analyzed by that a test compound at the indicated concentrations was changed log value and was applied simple linear regression. IC50 value was calculated by least squares method.

T1 sequence (P23219 24-599): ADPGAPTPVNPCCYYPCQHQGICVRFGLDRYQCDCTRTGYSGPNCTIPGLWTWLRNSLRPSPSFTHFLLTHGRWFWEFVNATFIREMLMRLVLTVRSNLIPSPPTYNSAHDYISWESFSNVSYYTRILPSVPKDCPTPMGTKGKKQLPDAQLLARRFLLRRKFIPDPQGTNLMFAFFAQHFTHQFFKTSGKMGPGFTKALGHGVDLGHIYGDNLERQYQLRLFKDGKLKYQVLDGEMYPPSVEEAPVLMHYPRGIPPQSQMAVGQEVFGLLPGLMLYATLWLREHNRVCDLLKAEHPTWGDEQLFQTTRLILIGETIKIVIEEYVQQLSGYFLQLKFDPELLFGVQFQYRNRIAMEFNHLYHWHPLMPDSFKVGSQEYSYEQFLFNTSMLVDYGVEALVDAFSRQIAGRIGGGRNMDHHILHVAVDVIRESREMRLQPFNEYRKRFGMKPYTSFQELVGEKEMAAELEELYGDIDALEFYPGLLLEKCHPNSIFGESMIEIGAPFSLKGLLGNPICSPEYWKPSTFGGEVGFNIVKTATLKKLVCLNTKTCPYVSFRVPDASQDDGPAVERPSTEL

`COCOc1ccc(-c2cc(S(C)(=O)=O)nn2-c2ccc(OC)cc2)cc1` gave a melting point of 128 to 128.1 °C. The compound `COc1ccc(-n2nc(C(F)(F)F)cc2-c2ccc(CCNC(C)=O)cc2)cn1` gave a melting point of 97 to 98 °C.

In the case of `CCN(C)C(=O)c1cc(-c2ccc(OCCN)cc2)n(-c2ccc(OC)cc2)n1.Cl`, the melting point lay in the range of 207 to 209 °C. The same measure, in the same setting: to `COc1ccc(-n2nc(C#N)cc2-c2ccc(OCCNC(N)=O)cc2)cc1` belongs 187 to 190 °C; to `COc1ccc(-n2nc(C(F)(F)F)cc2-c2ccc(CCCS(C)(=O)=O)cc2)cn1`, 121 to 122 °C; to `COc1ccc(-n2nc(C(F)(F)F)cc2-c2ccc(CCNC(N)=O)cc2)cc1`, 157 to 158 °C. Compound `COc1ccc(-n2nc(C(C)C)cc2-c2ccc(OCCNS(C)(=O)=O)cc2)cn1` yielded a melting point of 96 to 97 °C. `CCOc1cc(-c2ccc(OCCNS(C)(=O)=O)cc2)n(-c2ccc(OC)cc2)n1` came in with a melting point of 146 to 147 °C. Still for that read-out and setting: as for `CSc1ccc(-n2nc(C(F)F)cc2-c2ccc(OCCNS(C)(=O)=O)cc2)cc1`, the figure is 122.7 to 122.8 °C. `COc1ccc(-n2nc(OCC(F)(F)F)cc2-c2ccc(OCCNS(C)(=O)=O)cc2)cc1` showed a melting point of 131.3 to 131.4 °C. With `COc1ccc(-n2nc(Cl)cc2-c2ccc(OCCNS(=O)(=O)CCO)cc2)cc1`, the melting point fell in the range of 139.1 to 139.4 °C. `COc1ccc(-n2nc(C(=O)N3CCCCC3)cc2-c2ccc(CNS(C)(=O)=O)cc2)cn1` returned a melting point of 182.6 to 182.9 °C. In turn, `COc1ccc(-n2nc(OC(C)C)cc2-c2ccc(OCCNC(N)=O)cc2)cn1` had a melting point of 120 °C. Turning to `COc1ccc(-n2nc(OC(C)C)cc2-c2ccc(OCCNS(C)(=O)=O)cc2)cn1`, the melting point was in the range of 121 to 121.6 °C. Compound `CCOc1cc(-c2ccc(OCCO)cc2)n(-c2ccc(OC)nc2)n1` came in with a melting point of 81 to 82 °C. Still for that read-out and setting: to `COc1ccc(-n2nc(OCC(F)(F)F)cc2-c2ccc(OCCO)cc2)cc1` belongs 50.7 to 51.7 °C; to `COc1ccc(-n2nc(N(C)C(=O)N(C)C)cc2-c2ccc(OCCNC(N)=O)cc2)cc1`, 158.6 to 159 °C; to `COc1ccc(-n2nc(Cl)cc2-c2ccc(CNC(N)=O)cc2)cn1`, 111 to 115 °C. `COc1ccc(-n2nc(C(F)(F)F)c(C)c2-c2ccc(OCCNC(N)=O)cc2)cc1`: the melting point lay within 150.5 to 151.1 °C. On the same count and under the same terms, as for `COc1ccc(-n2nc(C(=O)N3CCCCC3)cc2-c2ccc(OCCO)cc2)cc1`, the figure is 121.9 to 123.8 °C; as for `COc1ccc(-n2nc(OC)cc2-c2ccc(OCCNC(N)=S)cc2)cc1`, 141.6 to 142.3 °C; as for `COc1ccc(-n2nc(C(F)F)cc2-c2ccc(OCCNC(N)=O)cc2)cn1` [241], 139 to 140 °C. Regarding `COc1ccc(-n2nc(C3CC3)cc2-c2ccc(OCCN)cc2)cc1.Cl` [277], the melting point is 229 to 231 °C.

As for `COc1ccc(-n2nc(C3CC3)cc2-c2ccc(OCCN)cc2)cc1.Cl` [322], the melting point was in the range of 228 to 231 °C. The compound `COc1ccc(-n2nc(Cl)cc2-c2ccc(OCCO)cc2)cc1` [Example 23, 2-{4-[3-Chloro-1-(4-methoxyphenyl)-1H-pyrazol-5-yl]-phenoxy}ethanol] had a melting point of 114.7 to 115.5 °C. Also, the 50% inhibitory concentration (IC50) in data set [1] was < 10 nM. Also, in data set [2], the response vs control in vivo at 3.2 mg/kg was > 150%. Also, in data set [3], the IC50 is > 100 nM. For `COc1ccc(-n2nc(Cl)cc2-c2ccc(OCCNC(N)=O)cc2)cc1` [Example 28, N-(2-{4-[3-Chloro-1-(4-methoxyphenyl)-1H-pyrazol-5-yl]-phenoxy}ethyl)urea], in that order: 144.8 to 145.4 °C, < 10 nM, > 150% and > 100 nM. In the case of `COc1ccc(-n2nc(C(F)F)cc2-c2ccc(CNS(C)(=O)=O)cc2)cc1` [Example 61, N-{4-[3-(Difluoromethyl)-1-(4-methoxyphenyl)-1H-pyrazol-5-yl]benzyl}methanesulfonamide], the IC50 in data set [1] was < 10 nM; in data set [3] it was > 100 nM. Moreover, the response vs control in vivo at 3.2 mg/kg in data set [2] was > 150%. For `COc1ccc(C2N=C(C(F)F)C=C2c2ccc(OCCNC(N)=O)cc2)cc1` (stereo not drawn) [Example 181] the same measures were < 10 nM, > 100 nM and ≥ 150%. For the compound `COc1ccc(-n2nc(C(F)(F)F)cc2-c2ccc(OCCNC(N)=O)cc2)cc1` [Example 240], the concentration for half-maximal inhibition (IC50) in data set [1] was < 10 nM; in data set [3], > 100 nM. Further, the response vs control in vivo at 3.2 mg/kg in data set [2] was ≥ 150%. `COc1ccc(-n2nc(C3CC3)cc2-c2ccc(OCCNC(N)=O)cc2)cc1` [Example 248] came in with a melting point of 150.8 to 151 °C. The half-inhibitory concentration (IC50) in data set [1] was < 10 nM. The response vs control in vivo at 3.2 mg/kg in data set [2] is ≥ 150%. Moreover, the IC50 in data set [3] was > 100 nM.

In turn, `COc1ccc(-n2nc(C(F)F)cc2-c2ccc(OCCNC(N)=O)cc2)cn1` [Example 250] returned a melting point of 141.5 to 142.1 °C. For the same compound, the IC50 in data set [1] is < 10 nM. Further, the response vs control in vivo at 3.2 mg/kg in data set [2] is ≥ 150%. The IC50 in data set [3] is > 100 nM. For `COc1ccc(-n2nc(C(F)(F)F)cc2-c2ccc(OCCNC(C)=O)cc2)cc1` [Example 254] the same measures were 109.8 to 110.2 °C, < 10 nM, ≥ 150% and > 100 nM. In the case of `COc1ccc(-n2nc(C(F)(F)F)cc2-c2ccc(OCCN)cc2)cc1` [Example 267], the response vs control in vivo at 3.2 mg/kg in data set [2] was ≥ 150%.
